{
  "source": "paper PMC3963422",
  "about": "(Journal of Visualized Experiments : JoVE, 2013)",
  "key": {"[1]": {"assay": "cantilever array surface stress detection, D-Lac coated cantilevers, buffer", "type": "binding"}, "[2]": {"assay": "cantilever bending in serum, D-Ala coated cantilevers", "type": "binding", "settings": "7 μM Van in serum (90% fetal calf serum plus 10% sodium phosphate buffer pH 7.4), 25 °C"}, "[3]": {"assay": "cantilever bending in serum, D-Lac coated cantilevers", "type": "binding", "settings": "7 μM Van in serum (90% fetal calf serum plus 10% sodium phosphate buffer pH 7.4), 25 °C"}, "[4]": {"settings": "D-Lac vs D-Ala peptide terminus; cited from earlier work"}, "[5]": {"system": "vancomycin-resistant Enterococcus (VRE)", "settings": "vancomycin-resistant Enterococcus (D-Lac); cited from earlier work"}},
  "data": [
    {"smiles": "CN[C@H](CC(C)C)C(=O)N[C@H]1C(=O)N[C@@H](CC(N)=O)C(=O)N[C@H]2C(=O)N[C@H]3C(=O)N[C@H](C(=O)N[C@H](C(=O)O)c4cc(O)cc(O)c4-c4cc3ccc4O)[C@H](O)c3ccc(c(Cl)c3)Oc3cc2cc(c3O[C@@H]2O[C@H](CO)[C@@H](O)[C@H](O)[C@H]2O[C@H]2C[C@](C)(N)[C@H](O)[C@H](C)O2)Oc2ccc(cc2Cl)[C@H]1O", "note": "[Van, vancomycin]", "values": [
      {"measurement": "bending signal at high vancomycin concentration", "setting": "[1]", "value": "measureable bending signals"},
      {"measurement": "differential bending signal", "setting": "[2]", "value": "105±4", "unit": "nm"},
      {"measurement": "bending signal", "setting": "[3]", "value": "no bending was observed"},
      {"measurement": "reduction in Van-D-Lac binding affinity", "setting": "[4]", "value": "three orders of magnitude"},
      {"measurement": "therapeutic effectiveness against Enterococcal infections", "setting": "[5]", "value": "therapeutically ineffective"}
    ]}
  ]
}
